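Where inhibition never reached the appropriate level, the endpoint shown equals the highest concentration tested. Otherwise, values were interpolated linearly from a five-concentration, 48-hour dose response in 96-well plates. Definition used: TGI = concentration required for complete inhibition of growth.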
Key:
Assay in all cases: DTP human tumour cell line panel, 48 h
786-0 renal = system: 786-0 renal
A549 NSCLC = system: A549 NSCLC
ACHN renal = system: ACHN renal
CAKI-1 renal = system: CAKI-1 renal
CCRF-CEM leukemia = system: CCRF-CEM leukemia
COLO 205 colon = system: COLO 205 colon
DLD-1 colon = system: DLD-1 colon
DMS 114 small cell lung = system: DMS 114 small cell lung
DMS 273 small cell lung = system: DMS 273 small cell lung
HCC-2998 colon = system: HCC-2998 colon
HCT-116 colon = system: HCT-116 colon
HCT-15 colon = system: HCT-15 colon
HL-60(TB) leukemia = system: HL-60(TB) leukemia
HOP-62 NSCLC = system: HOP-62 NSCLC
HOP-92 NSCLC = system: HOP-92 NSCLC
HT29 colon = system: HT29 colon
IGROV1 ovarian = system: IGROV1 ovarian
K-562 leukemia = system: K-562 leukemia
KM12 colon = system: KM12 colon
KM20L2 colon = system: KM20L2 colon
LOX IMVI melanoma = system: LOX IMVI melanoma
LXFL 529 NSCLC = system: LXFL 529 NSCLC
M14 melanoma = system: M14 melanoma
MALME-3M melanoma = system: MALME-3M melanoma
MOLT-4 leukemia = system: MOLT-4 leukemia
NCI-H226 lung = system: NCI-H226 lung
NCI-H23 lung = system: NCI-H23 lung
NCI-H460 lung = system: NCI-H460 lung
NCI-H522 lung = system: NCI-H522 lung
OVCAR-3 ovarian = system: OVCAR-3 ovarian
OVCAR-4 ovarian = system: OVCAR-4 ovarian
OVCAR-5 ovarian = system: OVCAR-5 ovarian
OVCAR-8 ovarian = system: OVCAR-8 ovarian
RPMI-8226 leukemia = system: RPMI-8226 leukemia
RXF 393 renal = system: RXF 393 renal
SF-268 CNS = system: SF-268 CNS
SF-295 CNS = system: SF-295 CNS
SF-539 CNS = system: SF-539 CNS
SK-MEL-28 melanoma = system: SK-MEL-28 melanoma
SK-MEL-5 melanoma = system: SK-MEL-5 melanoma
SK-OV-3 ovarian = system: SK-OV-3 ovarian
SN12C renal = system: SN12C renal
SNB-75 CNS = system: SNB-75 CNS
SNB-78 CNS = system: SNB-78 CNS
SR leukemia = system: SR leukemia
SW-620 colon = system: SW-620 colon
TK-10 renal = system: TK-10 renal
U251 CNS = system: U251 CNS
UACC-257 melanoma = system: UACC-257 melanoma
UACC-62 melanoma = system: UACC-62 melanoma
UO-31 renal = system: UO-31 renal
XF 498 CNS = system: XF 498 CNS
SK-MEL-2 melanoma = system: SK-MEL-2 melanoma
SNB-19 CNS = system: SNB-19 CNS

Measured: TGI

OCCCCOC(c1ccccc1)(c1ccccc1)c1ccccc1
not listed: SK-MEL-2 melanoma | SNB-19 CNS
> 100 µM: all other assays above

CN(C)CCCNC(=O)c1cccc2ccccc12
not listed: 786-0 renal | CAKI-1 renal | COLO 205 colon | HCC-2998 colon | HOP-62 NSCLC | HOP-92 NSCLC | IGROV1 ovarian | KM20L2 colon | M14 melanoma | OVCAR-5 ovarian | RPMI-8226 leukemia | SR leukemia | UO-31 renal
> 100 µM: all other assays above
